According to publication PMC10150623 (Journal of Enzyme Inhibition and Medicinal Chemistry, 2023):
Peptide text beside a SMILES is read from it.

Experiments:
[1] = tested on: Neuro-2A (N2A) cells
[2] = tested on: SH-SY5Y cells
[3] = tested on: BoNT/A; conditions: cited from earlier work
[4] = tested on: leg muscle paralysis; set-up: species or system KM mice; conditions: mouse, in vivo
[5] = in vivo; cited from earlier work
[6] = molecular target: BoNT/A LC (1–448 aa) (Clostridium botulinum, UniProt P0DPI0); type: biochemical
Chain of BoNT/A LC (1–448 aa) (P0DPI0 1-448 limits assumed): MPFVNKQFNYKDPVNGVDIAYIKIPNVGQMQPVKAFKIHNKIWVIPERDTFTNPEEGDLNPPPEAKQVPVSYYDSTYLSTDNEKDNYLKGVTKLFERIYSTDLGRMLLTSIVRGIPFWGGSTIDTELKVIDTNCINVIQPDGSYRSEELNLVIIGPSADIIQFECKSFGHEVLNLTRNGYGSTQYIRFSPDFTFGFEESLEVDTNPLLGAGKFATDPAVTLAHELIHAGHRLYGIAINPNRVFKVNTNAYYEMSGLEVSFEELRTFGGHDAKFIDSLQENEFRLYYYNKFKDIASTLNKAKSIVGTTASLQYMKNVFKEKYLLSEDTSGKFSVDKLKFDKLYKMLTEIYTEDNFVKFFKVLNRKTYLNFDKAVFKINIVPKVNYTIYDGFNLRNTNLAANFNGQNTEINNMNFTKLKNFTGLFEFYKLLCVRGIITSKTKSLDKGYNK

[7] = molecular target: Clostridium botulinum neurotoxin type A light chain (1-448 aa) (Clostridium botulinum) (UniProt P0DPI0); assay: enzyme inhibition kinetics (HPLC of substrate and products)
Chain of Clostridium botulinum neurotoxin type A light chain (1-448 aa) (Clostridium botulinum) (P0DPI0 1-448): as the sequence (P0DPI0 1-448 limits assumed) above

Compound: N=C(N)NCCC[C@H](NC(=O)[C@@H](N)CCCNC(=N)N)C(=O)NCC(=O)N[C@@H](Cc1c[nH]c2ccccc12)C(=O)O [RRGW] (H-RRGW-OH)
- cytotoxicity (cell viability) [1]: no cytotoxicity
- cytotoxicity (cell viability) [2]: no cytotoxicity

Compound: CRGC
- cell-based activity, in words [3]: higher activity than RRGC in cell-based experiments

Compound: Clostridium botulinum neurotoxin type A [BoNT/A]
- DAS (digit abduction score) [4]: 3–4
- nonserious cases following cosmetic use [5]: 995 cases
- nonserious cases following therapeutic use [5]: 189 cases
- serious cases following cosmetic use [5]: 36 cases
- serious cases following therapeutic use [5]: 217 cases

Compound: RHGW
- inhibitory effect on BoNT/A LC proteolytic activity (SNAP-25 cleavage), in words [6]: RRGW showed a better inhibitory effect on BoNT/A proteolytic activity than RRGC, RRGL and RHGW

Compound: RRGL
- inhibitory effect on BoNT/A LC proteolytic activity (SNAP-25 cleavage), in words [6]: RRGW showed a better inhibitory effect on BoNT/A proteolytic activity than RRGC, RRGL

Compound: RRGW tetrapeptide
- Ki [7]: 790 nM
